{"source": "patent US20160320417A1", "about": "“METHODS AND KITS FOR DETERMINING RISK FOR DEVELOPING ALZHEIMER'S DISEASE AND PREVENTION OR TREATMENT THEREOF” (Loma Linda University, priority 2013, published 2016)", "key": {"peripheral blood cells": {"system": "peripheral blood cells", "assay": "filipin staining of peripheral blood cells measured by flow cytometry after inducing cholesterol dysregulation", "assay_type": "cell-based", "conditions": "peripheral blood cells (PBCs) treated with the compound; FIG. 7", "description": "In some embodiments, peripheral blood cells can be isolated and filipin levels measured by flow cytometry. This can allows for the cells to be isolated inexpensively and at minimal risk to the patient from simple venipuncture rather than requiring the invasive punch biopsy method for collection of fibroblasts as used and described in the results presented herein. A venipuncture can be performed with a venipuncture assembly including, for example, but not limited to, a plastic hub, a hydrodermic needle, a vacuum tube, a syringe, a butterfly needle, and/or other blood collection or vanipuncture devices known in the art. Accordingly, the ability to isolate peripheral blood cells and measure the filipin levels by flow cytometry can facilitate the commercialization of the testing procedure and techniques described herein for preventing and detecting disease. The isolation of peripheral blood cells and measuring of the filipin levels by flow cytometry was tested in two ways. […] Cholesterol dysregulation was induced by treating the cells with Ul 8666A, a compound that inhibits cholesterol synthesis and intracellular trafficking."}, "[1]": {"conditions": "clinical trials, cited from earlier work; for mitigation of clinical AD progression: drugs aimed at preventing Aβ aggregates from forming into SPs"}}}
{"compound": "CCN(CC)CCO[C@H]1CC[C@@]2(C)C(=CC[C@@H]3[C@@H]2CC[C@]2(C)C(=O)CC[C@@H]32)C1", "note": "[U18666A]", "values": [{"measurement": "effect on filipin staining (filipin fluorescence)", "setting": "peripheral blood cells", "value": "dose-dependent effect"}]}
{"compound": "O[C@H]1[C@H](O)[C@@H](O)[C@H](O)[C@@H](O)[C@@H]1O", "note": "[scyllo-inositol]", "values": [{"measurement": "mitigation of clinical AD progression", "setting": "[1]", "value": "failed to mitigate clinical AD progression"}]}
{"compound": "C[C@@H](C(=O)O)c1ccc(-c2ccccc2)c(F)c1", "note": "[tarenflurbil]", "values": [{"measurement": "benefit to cognitive function", "setting": "[1]; compounds targeting γ-secretase, even when reducing Aβ levels", "value": "no benefit to cognitive function"}]}
{"compound": "NCCCS(=O)(=O)O", "note": "[homotaurine]", "values": [{"measurement": "mitigation of clinical AD progression", "setting": "[1]", "value": "failed to mitigate clinical AD progression"}]}
